Laboratory results from ChEMBL document CHEMBL1201862, “PubChem BioAssay data set” (2004).
Several values for one entry are separate records, joined by “and”; a condition that tells them apart may be missing. Equal values may be shown once.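 Test compounds were applied to cells in 96-well plates for 48 hours at 5 doses. The concentration for 50% growth inhibition is given as GI50.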 Activity calls are given as the source filed them. Cut-off read from the data, not from the text of the source: active = GI50 up to about 1.1 µM and inactive = higher.

Experiments:
Assay in all cases: growth of human tumour cells (NCI), 48 h
SNB-19 = tested on: SNB-19
KM12 = tested on: KM12
OVCAR-5 = tested on: OVCAR-5
SR = tested on: SR
CCRF-CEM = tested on: CCRF-CEM
786-0 = tested on: 786-0
SN12C = tested on: SN12C
NCI-H226 = tested on: NCI-H226
HCT-15 = tested on: HCT-15
HT-29 = tested on: HT-29
SF-268 = tested on: SF-268
LOX IMVI = tested on: LOX IMVI
BT-549 = tested on: BT-549
U-251 = tested on: U-251
SF-295 = tested on: SF-295
UO-31 = tested on: UO-31
MDA-N = tested on: MDA-N
NCI-H460 = tested on: NCI-H460
HOP-62 = tested on: HOP-62
MCF7 = tested on: MCF7

SMILES	GI50 (SNB-19)	GI50 (KM12)	GI50 (OVCAR-5)	GI50 (SR)	GI50 (CCRF-CEM)	GI50 (786-0)	GI50 (SN12C)	GI50 (NCI-H226)	GI50 (HCT-15) [µM]	GI50 (HT-29)	GI50 (SF-268)	GI50 (LOX IMVI)	GI50 (BT-549)	GI50 (U-251)	GI50 (SF-295)	GI50 (UO-31)	GI50 (MDA-N)	GI50 (NCI-H460)	GI50 (HOP-62)	GI50 (MCF7)
Nc1ccn(C2OC(COP(=O)(O)OCC3OC(n4cc(F)c(=O)[nH]c4=O)CC3O)C(O)C2O)c(=O)n1 (stereo unspecified)	0.585 µM (active)	> 100 µM (inactive)	> 100 µM (inactive)	< 0.01 µM (active)	0.0161 µM (active)	1.33 µM (inactive)	3.05 µM (inactive)	> 22.9 µM (inactive)	5.75	4.3 µM (inactive)	< 0.01 µM (active)	0.0353 µM (active)	> 37.6 µM (inactive)	1.77 µM (inactive)	0.0453 µM (active)	0.339 µM (active)	26.4 µM (inactive)	< 0.01 µM (active)		
C[C@]12CC[C@@H]3c4ccc(O)cc4CC[C@H]3[C@@H]1C/C(=C\c1ccncc1)[C@@H]2O	23.4 µM (inactive)	5.98 µM (inactive)	28.6 µM (inactive)		9.75 µM (inactive)	14.3 µM (inactive)	26.9 µM (inactive)	10.7 µM (inactive)	4.22	15.1 µM (inactive)	8.55 µM (inactive)		3.86 µM (inactive)	11.8 µM (inactive)	4.29 µM (inactive)	21.5 µM (inactive)	3.99 µM (inactive)	6.32 µM (inactive)	14.8 µM (inactive)	10.1 µM (inactive)
CCOC(=O)OC1(c2ccccc2)CCN(C)CC1	> 100 µM (inactive)	> 100 µM (inactive)	> 100 µM (inactive)	> 100 µM (inactive)	> 100 µM (inactive)	> 100 µM (inactive)	> 100 µM (inactive)	> 100 µM (inactive)	> 100	> 100 µM (inactive)	> 100 µM (inactive)	> 100 µM (inactive)		> 100 µM (inactive)	> 100 µM (inactive)	> 100 µM (inactive)	> 100 µM (inactive)	> 100 µM (inactive)	> 100 µM (inactive)	> 100 µM (inactive)
CCOc1cc(CC[N+](C)(C)C)c2c(ccc3ccc(OC)c(OC)c32)c1OC	> 100 µM (inactive)			> 100 µM (inactive)		> 100 µM (inactive)	> 100 µM (inactive)			> 100 µM (inactive)	> 100 µM (inactive)		19.4 µM (inactive)	> 100 µM (inactive)	> 100 µM (inactive)	> 100 µM (inactive)	> 100 µM (inactive)			
CC(C)(C)OC(=O)N1C(=O)OC[C@@H]2C=C[C@@H]21	> 100 µM (inactive)	> 100 µM (inactive)	> 100 µM (inactive)		> 100 µM (inactive)	> 100 µM (inactive)	> 100 µM (inactive)		> 100	> 100 µM (inactive)	> 100 µM (inactive)	> 100 µM (inactive)	> 100 µM (inactive)	> 100 µM (inactive)	> 100 µM (inactive)		> 100 µM (inactive)	> 100 µM (inactive)	> 100 µM (inactive)	> 100 µM (inactive)
O=C(C[N+]1(c2ccccc2)CCOCC1)c1ccccc1	> 100 µM (inactive)	> 100 µM (inactive)	> 100 µM (inactive)	34.8 µM (inactive)		60.5 µM (inactive)	> 100 µM (inactive)	> 100 µM (inactive)	> 100	> 100 µM (inactive)	> 100 µM (inactive)	> 100 µM (inactive)	> 100 µM (inactive)	> 100 µM (inactive)	> 100 µM (inactive)	> 100 µM (inactive)	> 100 µM (inactive)	> 100 µM (inactive)	> 100 µM (inactive)	
Nc1ccccc1/C=C\c1ccccc1	> 100 µM (inactive)	> 100 µM (inactive)	> 100 µM (inactive)		> 100 µM (inactive)	> 100 µM (inactive)	> 100 µM (inactive)	> 100 µM (inactive)	> 100	> 100 µM (inactive)	> 100 µM (inactive)		> 100 µM (inactive)	> 100 µM (inactive)	> 100 µM (inactive)	> 100 µM (inactive)	> 100 µM (inactive)	> 100 µM (inactive)	> 100 µM (inactive)	> 100 µM (inactive)
[N-]=[N+]=CC(=O)OCC1NC(=O)C(COC(=O)C=[N+]=[N-])NC1=O (stereo unspecified)	> 100 µM (inactive) and 72.1 µM (inactive)	> 100 µM (inactive)	> 100 µM (inactive)	> 100 µM (inactive)	> 100 µM (inactive)	> 100 µM (inactive)	> 100 µM (inactive)	> 100 µM (inactive)	> 100	> 100 µM (inactive)	> 100 µM (inactive)	> 100 µM (inactive)		> 100 µM (inactive)	> 100 µM (inactive)	> 100 µM (inactive)	> 100 µM (inactive)	> 100 µM (inactive)	> 100 µM (inactive)	> 100 µM (inactive)
CC1=CC(=O)/C(=C/NC(=S)c2ccccc2)C(=O)O1	> 100 µM (inactive)	> 100 µM (inactive)	> 100 µM (inactive)			> 100 µM (inactive)	> 100 µM (inactive)	> 100 µM (inactive)	> 100	> 100 µM (inactive)		> 100 µM (inactive)	> 100 µM (inactive)	> 100 µM (inactive)	> 100 µM (inactive)	> 100 µM (inactive)	> 100 µM (inactive)	> 100 µM (inactive)	> 100 µM (inactive)	> 100 µM (inactive)
O=S(=O)(O)c1ccc2c(/N=N/c3ccc(Cl)cc3)c(O)ccc2c1	> 100 µM (inactive)	> 100 µM (inactive)	> 100 µM (inactive)		> 100 µM (inactive)	> 100 µM (inactive)	> 100 µM (inactive)		> 100	> 100 µM (inactive)	> 100 µM (inactive)	> 100 µM (inactive)	> 100 µM (inactive)	> 100 µM (inactive)	> 100 µM (inactive)	> 100 µM (inactive)	> 100 µM (inactive)		> 100 µM (inactive)	
Cc1nnc(N)nc1/C=C\c1cccs1	33.6 µM (inactive)	16.8 µM (inactive)	21.8 µM (inactive)	16.6 µM (inactive)	16.7 µM (inactive)	18.6 µM (inactive)	> 10 µM (inactive)	17.5 µM (inactive)	10.2	14.1 µM (inactive)	19.5 µM (inactive)	29.6 µM (inactive)	42.9 µM (inactive)	29.9 µM (inactive)	21.4 µM (inactive)	10.1 µM (inactive)		14.7 µM (inactive)	16.7 µM (inactive)	13.9 µM (inactive)
CSCCC(NC(=O)Cc1ccc(C(=O)c2ccccc2)cc1)C(=O)N1CCN(CCCCN2c3ccccc3Sc3cc(N=[N+]=[N-])ccc32)CC1 (stereo unspecified)		20.4 µM (inactive)	> 100 µM (inactive)		49.3 µM (inactive)	> 100 µM (inactive)	> 100 µM (inactive)	78.2 µM (inactive)	> 100	> 100 µM (inactive)	> 100 µM (inactive)	> 100 µM (inactive)	> 100 µM (inactive)	> 100 µM (inactive)	47.6 µM (inactive)	34.8 µM (inactive)		> 100 µM (inactive)	> 100 µM (inactive)	73.3 µM (inactive)
O=C1Nc2ccccc2/C1=N/Nc1ncccc1[N+](=O)[O-]	19.9 µM (inactive)	3.42 µM (inactive)	12.6 µM (inactive)			4.84 µM (inactive)	17.3 µM (inactive)	13.6 µM (inactive)	4.72	6.12 µM (inactive)	11.9 µM (inactive)	7.55 µM (inactive)	11.5 µM (inactive)	7.18 µM (inactive)	17.2 µM (inactive)	11.6 µM (inactive)	27.1 µM (inactive)	16.7 µM (inactive)	12.9 µM (inactive)	3.19 µM (inactive)
N#C[BH2-][n+]1cn(C2CC(O)C(COP(=O)(O)OC3CC(n4ccc(N)nc4=O)OC3CO)O2)c2nc(N)[nH]c(=O)c21 (stereo unspecified)	> 100 µM (inactive)	> 100 µM (inactive)	> 100 µM (inactive)	> 100 µM (inactive)	> 100 µM (inactive)	> 100 µM (inactive)	> 100 µM (inactive)	> 100 µM (inactive)	> 100	> 100 µM (inactive)	> 100 µM (inactive)			> 100 µM (inactive)	> 100 µM (inactive)	> 100 µM (inactive)	> 100 µM (inactive)	> 100 µM (inactive)	> 100 µM (inactive)	> 100 µM (inactive)
CCOC(=O)c1cccn1S(=O)(=O)c1cc(Cl)ccc1NC(=O)CC	> 100 µM (inactive)	44.9 µM (inactive)	> 100 µM (inactive)	> 10 µM (inactive)	> 100 µM (inactive)	57 µM (inactive)	> 100 µM (inactive)		44			70.5 µM (inactive)	52.6 µM (inactive)	> 100 µM (inactive)	35.2 µM (inactive)	15.4 µM (inactive)		50.1 µM (inactive)	> 100 µM (inactive)	> 100 µM (inactive)
CC(C)(C)[Si](C)(C)OCCc1ccccc1C1CC2(S(=O)(=O)c3ccccc3)ON1CC2S(=O)(=O)c1ccccc1 (stereo unspecified)	> 100 µM (inactive)	> 100 µM (inactive)	> 100 µM (inactive)		> 100 µM (inactive)	> 100 µM (inactive)	> 100 µM (inactive)	> 100 µM (inactive)		> 100 µM (inactive)	> 100 µM (inactive)		> 100 µM (inactive)	> 100 µM (inactive)	> 100 µM (inactive)	> 100 µM (inactive)	> 100 µM (inactive)	> 100 µM (inactive)	> 100 µM (inactive)	60.5 µM (inactive)
